Data: PMC6099102, “Effect of the Nature of Donor Atoms on the Thermodynamic, Kinetic and Relaxation Properties of Mn(II) Complexes Formed With Some Trisubstituted 12-Membered Macrocyclic Ligands” (Frontiers in Chemistry, 2018)
Like-named read-outs stand apart in the source and are kept apart here. Marks after values point to notes of the source that are not given here.

Legend:
[1] = Protonation constants of the ligands by pH-potentiometric titration; format: physicochemical; conditions: for Σ log K2H: log K1H + log K2H
Description: (§1) The concentration of the ligand solutions was determined by pH-potentiometric titration in the presence and absence of an excess (5–10 fold) of MnCl2. For determining the protonation constants of the investigated ligands, pH-potentiometric titrations were made by means of 0.2 M standardized NaOH in 2 and 3 mM ligand solutions in the pH-range of 1.75–11.85. All equilibrium measurements were performed at a constant 0.15 M NaCl ionic strength at 25 °C. The protonation and the stability constants of the Mn(II) complexes were determined by pH-potentiometric titrations (DOTP, DO3A, PCTA, ODO3A, DO3P) while owing to the slow formation rates of Mn(II) complexes formed with amide type ligands, the stability constants of DOTAM, DOTMA, DO3AM^H, PC3AM^H, PC3AM^Gly, PC3AM^Pip complexes were determined by out-of-cell pH-potentiomertry in combination with ^1H relaxometry. The metal-to-ligand concentration ratio in the solutions was 1:1. For the calculation of protonation constants of the ligands and the log KMnL and log KMnLHi values of the complexes, mL–pH data pairs (50–180), obtained in the pH range of 1.75–11.85 or r1obs-pH data pairs (10–15 batch samples) obtained in the pH range of 2–4.5 were used (the samples were equilibrated for 4–7 days). The equilibrium constants characterizing the deprotonation that occurs at basic pH were determined from the data obtained via direct pH-potentiometric titrations performed on the pre-formed complexes.
(§2) The pH-potentiometric titrations were carried out with a Methrohm 888 Titrando titration workstation using a Metrohm-6.0233.100 combined electrode. The samples (6.00 mL) were thermostated at 25 °C. The samples were stirred and kept under inert gas (N2) to avoid the effect of CO2. KH-phthalate (pH = 4.005) and borax (pH = 9.177) buffers were used for the pH-calibration. The method proposed by Irving et al. was used for the calculation of H^+ concentrations from the measured pH values (Irving et al., [1967]). A 0.01 M HCl (I = 0.15 M set with NaCl) solution was titrated with standardized NaOH solution of known concentration (approx. 0.2 M). The correction factor obtained as difference of calculated pH and measured pH values was used to calculate the [H^+] in the samples. The ionic product of water was determined from the same titrations (HCl/NaOH) from the data collected in the pH range of 11.20–11.85.
The protonation and complexation equilibria of the macrocyclic ligands and their Mn(II) complexes have been studied by pH-potentiometric and relaxometric methods in the presence of 0.15 M NaCl whose ionic strength mimics the physiological conditions. The protonation constants of the ligands were evaluated by fitting the pH-V(mL) base data pairs collected in the pH-potentiometric titrations. The protonation equilibria of the ligands can be described by Equation (2). (a comparison of previously published log K^H data available in the Supplementary Material) together with the constants of H4DOTA, cis- and trans-H2DO2A derivatives given for comparison. (2) KiH=[HiL]/[Hi-1L][H^+],i=1,2,…

[2] = Stability and protonation constants and pMn of the Mn(II) complexes (pH-potentiometry and/or 1H relaxometry); format: physicochemical; conditions: I = 0.15 M NaCl, 25 °C; for pMn: calculated at pH = 7.4, cM = cL = 10^−5 M; for log KML: stability constant of the Mn(II) complex; for log KMLH: protonation constant of the Mn(II) complex; for log KMHLH: second protonation constant of the Mn(II) complex; for log KMH2LH: third protonation constant of the Mn(II) complex; for log KMLOH: ternary hydroxido complex of Mn(II)
Description: as §1, §2
The relaxometric data were collected using a Bruker Minispec MQ20 NMR relaxometer. […] A datapoint plotted on figures represents an average of 5–6 T1 measurements (Figures S3–S9 in Supplementary Material). The data were fitted by using the molar r1p relaxivity value of the MnCl2 ([…] at 0.49 T and 25 °C). The equilibrium constants were calculated using the PSEQUAD program (Zékány and Nagypál, [1985]).
In order to gain information on the thermodynamic stability of the Mn(II) complexes, samples containing the metal and ligand in 1 to 1 molar ratio were studied by pH potentiometry or ^1H-relaxometry and in some cases by a combination of the two methods. The titration data were fitted by assuming the existence of [M(L)] and some protonated species ([M(HiL)]) at lower pH values. In some cases to fit the data obtained at higher pH, the formation of ternary hydroxido complexes ([M(L)(OH)]) were also included in the equilibrium model. The stability constants (KML) and the various protonation forms (KMHiL) of ML metal chelates are defined by Equations (3)–(5). However, a comparison of the stabilities of different complexes solely on the basic of their stability constants might be misleading because of the differences in ligand basicities. […] The pMn value accounts for the effect of proton competition (ligand basicity and complex protonation) on the stability constant essentially offering the same information as the conditional stability constant. Higher pMn values indicate a higher chelate stability at specified conditions. […]

[3] = I = 0.1 M KCl, cited from earlier work; for Σ log K2H: log K1H + log K2H
[4] = cited from earlier work; for pMn: pH = 7.4, cM = cL = 10^−5 M
[5] = Dissociation kinetics of the Mn(II) complexes (acid catalyzed dissociation, metal or ligand exchange reactions); format: physicochemical; conditions: replacement of >NH in DO3A by etheric oxygen
Description: The dissociation reactions were followed by UV-vis spectrophotometry at 269 nm for the pyclen derivatives or at 300 nm for other complexes in the pH range of 3.6–5.0 for the exchange reactions with Cu(II) and up to pH = 6.0 when Zn(II) was used as a ligand scavenger. The acid catalyzed dissociation reactions were performed in the HCl concentration range of 0.05–1.0 M. The concentration of the complexes in the samples was 0.25 mM, while the concentration of the exchanging metal ion in the metal initiated transchelation reactions was 10–40 times higher to ensure pseudo-first-order conditions. Relaxometry was used to follow the transchelation reactions of [Mn(DOTAM)]^2+, [Mn(DO3AM^H)]^2+, [Mn(DO3A)]^−, [Mn(PCTA)]^− and [Mn(ODO3A)]^− with Cu(II)/Zn(II) ions in the pH range of 3.6–5.5 (Figures S17–S19 in Supplementary Material). The concentration of the complexes in these samples was set to 1.0–2.0 mM to achieve relatively large change during the dissociation reaction. […] The temperature was maintained at 25 °C and the ionic strength of the solutions was kept constant at 0.15 M with NaCl. N,N′-dimethyl- (DMP) and N-methyl-piperazine (NMP) buffers (log K2H = 4.18 and 4.90 at 25 °C and I = 0.15 M NaCl, respectively) were used at 0.05 M concentration to keep the pH constant. The pseudo-first-order rate constants (kobs) were calculated by fitting the absorbance or relaxivity-time data pairs to Equation (1) (1) Xt=(X0-Xe)e^-kobst+Xe where Xt, X0, and Xe are the absorbance or relaxivity at time t, at the start and at equilibrium, respectively. The calculations were performed with the computer program Micromath Scientist, version 2.0 (Salt Lake City, UT, USA) using a standard least-squares procedure.
The kinetic inertness of the Mn(II) complexes is the other important parameter for the complexes considered for use in vivo. The inertness of Mn(II) complexes formed with trisubstituted 12-memberd macrocyclic ligands were characterized either by studying the rates of acid catalyzed dissociation or by studying transmetallation reactions occurring between the complexes and a suitable exchanging metal ion such as Zn(II) or Cu(II). The demetallation reactions of labile complexes were performed at high pH by following the ligand exchange reactions with trans-CDTA and DTPA ligands. The demetallation reactions were studied in the presence of a large Cu(II)/Zn(II)/trans-CDTA/DTPA excess or by using high acid concentration in order to ensure pseudo-first-order conditions (Equation 6). Scheme 1 outlines all the possible dissociation pathways for the Mn(II) complexes. […] The reactions of the released Mn(II) and L ligand with the exchanging L' and M' reactants are assumed to be very rapid.
The rate of dissociation can be expressed by the Equation (6), where kobs is the pseudo-first-order rate constant and [Mn(L)]t is the total concentration of the species containing [Mn(L)] complex. The [Mn(L)]t will differ slightly depending on the experimental conditions (in the presence of a large metal or ligand excess). As [Mn(L)]t = [Mn(L)] + [Mn(HL)] + [Mn(H2L)] + [Mn(L)M] + [Mn(L)(L')] + [Mn(HL)(L')] for reactions performed at high pH (in the pH range of 3.0–5.0 often applied in Cu(II) exchange reactions) will involve fewer protonated species while the acid catalyzed dissociation reactions run in the strongly acidic media (0.1–1.0 M acid concentration range) predominantly contain protonated species ([Mn(L)]t = [Mn(L)]+[Mn(HL)]+[Mn(H2L)]). (6) -d[MnL]t/dt=kobs[MnL]t
By taking into account the various complex species and the possible reaction pathways as well as the protonation and stability constants of the reactive intermediates, the following equation (Equation 7) can be derived to describe the rates of dissociation. […]

[6] = buffer, 25 °C and I = 0.15 M NaCl
[7] = ligand protonation constant, I = 0.15 M NaCl, 25 °C
[8] = Mn(II) complex, 1H-relaxometry, ref Tircsó and Woods (in preparation)
[9] = Mn(II) complex, I = 0.1 M KCl, ref Forgács et al., [2016]

Row | Compound | log K1H [1, 7] | log K2H [1, 7] | Σ log K2H ([1]; I = 0.15 M NaCl, 25 °C) | pMn [2] | log KML [2] | log K3H [1, 7] | log K4H [1, 7] | log KMLH [2] | other results
1 | CN1CCN(C)CC1 [DMP, reference compound] | – | – | – | – | – | – | – | – | log K2H [1, 6]: 4.18
2 | NC(=O)CN1CCNCCN(CC(N)=O)CCN(CC(N)=O)CC1 [DO3AM^H] | 9.40 (5) | 6.28 (8) | 15.68 | 7.32 | 11.69 (2) | – | – | – | –
3 | NC(=O)CN1CCN(CC(N)=O)CCN(CC(N)=O)CCN(CC(N)=O)CC1 [DOTAM] | 7.31 (1) | 6.07 (1) | 13.38 | 8.60 | 11.96 (1) | – | – | – | –
4 | CC(C(=O)O)N1CCN(C(C)C(=O)O)CCN(C(C)C(=O)O)CCN(C(C)C(=O)O)CC1 (centres unmarked) [DOTMA] | – | – | – | – | – | – | – | – | log K1H ([3]; ref Aime et al., [2011]): 11.72; log K2H ([3]; ref Aime et al., [2011]): 9.06; log K3H ([3]; ref Aime et al., [2011]): 4.74; log K4H ([3]; ref Aime et al., [2011]): 5.59; log K5H ([3]; ref Aime et al., [2011]): 1.92; Σ log K2H ([3]; ref Aime et al., [2011]): 20.78; log KML [4, 8]: 18.37^[a]; log KMLH [4, 8]: 4.56^[a]; pMn ([4]; ref Tircsó and Woods (in preparation)): 8.69
5 | O=P(O)(O)CN1CCN(CP(=O)(O)O)CCN(CP(=O)(O)O)CCN(CP(=O)(O)O)CC1 [DOTP] | – | 12.23 (3) | 25.83 | 6.43 | 18.98 (1) | 8.63 (5) | 7.45 (4) | 8.09 (1) | log K1H ([1]; ligand protonation constant by 1H- and 31P-NMR, I = 0.15 M NaCl, 25 °C): 13.6 (2)^[a]; log K5H [1, 7]: 5.84 (5); log K6H [1, 7]: 5.02 (5); log KMHLH [2]: 7.79 (1); log KMH2LH [2]: 6.74 (1)
6 | CN1CCNCC1 [NMP, N-methyl-piperazine, reference compound] | – | – | – | – | – | – | – | – | log K2H [1, 6]: 4.90
7 | O=C(O)CN1CCOCCN(CC(=O)O)CCN(CC(=O)O)CC1 [ODO3A] | 8.74 (2) | 7.58 (2) | 16.32 | 8.57 | 13.88 (1) | 3.99 (3) | 2.39(3) | 2.77 (5) | increase in the k1 value of the Mn(II) complex relative to DO3A [5]: 50 fold
8 | O=C(O)CNC(=O)CN1CCN(CC(=O)NCC(=O)O)Cc2cccc(n2)CN(CC(=O)NCC(=O)O)CC1 [PC3AM^Gly] | 8.85 (1) | 4.55 (1) | 13.40 | 8.37 | 13.20 (1) | 3.81 (1) | 3.21 (1) | 3.98 (1) | log K5H [1, 7]: 2.80 (1); log K6H [1, 7]: 1.38 (1); log KMHLH [2]: 3.14 (1); log KMLOH [2]: 10.67 (2); log KMH2LH [2]: 2.87 (1)
9 | O=C(CN1CCN(CC(=O)N2CCCCC2)Cc2cccc(n2)CN(CC(=O)N2CCCCC2)CC1)N1CCCCC1 [PC3AM^Pip] | 8.74 (1) | 5.77 (2) | 14.51 | 8.86 | 14.05 (2) | 1.42 (9) | – | – | log KMLOH [2]: 11.63 (2)
10 | CN(C)C(=O)CN1CCN(CC(=O)N(C)C)CCN(Cc2ccccc2)CCN(Cc2ccccc2)CC1 [cis-Bz2DO2AM^Me2] | – | – | – | – | – | – | – | – | log K1H ([3]; ref Forgács et al., [2017]): 11.11; log K2H ([3]; ref Forgács et al., [2017]): 8.22; Σ log K2H ([3]; ref Forgács et al., [2017]): 19.33; log KML [4, 9]: 11.54; log KMLOH [4, 9]: 10.44; pMn ([4]; I = 0.1 M KCl, ref Forgács et al., [2016]): 6.00
